Reference: PubChem BioAssay (NCI)
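Interpolation was linear, between the two tested concentrations surrounding the appropriate level; five concentrations were tested over 48 hours in 96-well plates. GI50 = concentration required for 50% inhibition of growth. TGI: total growth inhibition.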

How the values were obtained:
Assay in all cases: growth of human tumour cells (NCI), 48 h
OVCAR-5 ovarian = tested on: OVCAR-5 ovarian
MCF7 breast = tested on: MCF7 breast
HOP-92 NSCLC = tested on: HOP-92 NSCLC
SK-MEL-2 melanoma = tested on: SK-MEL-2 melanoma
SNB-75 CNS = tested on: SNB-75 CNS
SF-539 CNS = tested on: SF-539 CNS
EKVX NSCLC = tested on: EKVX NSCLC
M14 melanoma = tested on: M14 melanoma
ACHN renal = tested on: ACHN renal
HT29 colon = tested on: HT29 colon
T-47D breast = tested on: T-47D breast
A498 renal = tested on: A498 renal
SN12C renal = tested on: SN12C renal
SNB-19 CNS = tested on: SNB-19 CNS
MDA-MB-435 = tested on: MDA-MB-435
HOP-62 NSCLC = tested on: HOP-62 NSCLC
SK-OV-3 ovarian = tested on: SK-OV-3 ovarian
SF-268 CNS = tested on: SF-268 CNS
HS 578T breast = tested on: HS 578T breast
K-562 leukemia = tested on: K-562 leukemia
RXF 393 renal = tested on: RXF 393 renal
LOX IMVI melanoma = tested on: LOX IMVI melanoma
UO-31 renal = tested on: UO-31 renal
SK-MEL-5 melanoma = tested on: SK-MEL-5 melanoma
CAKI-1 renal = tested on: CAKI-1 renal
CCRF-CEM leukemia = tested on: CCRF-CEM leukemia
U251 CNS = tested on: U251 CNS
DU-145 prostate = tested on: DU-145 prostate
HCT-116 colon = tested on: HCT-116 colon
SF-295 CNS = tested on: SF-295 CNS
786-0 renal = tested on: 786-0 renal
NCI-H522 lung = tested on: NCI-H522 lung
NCI-H460 lung = tested on: NCI-H460 lung
HCT-15 colon = tested on: HCT-15 colon
OVCAR-8 ovarian = tested on: OVCAR-8 ovarian
NCI-H23 lung = tested on: NCI-H23 lung
OVCAR-4 ovarian = tested on: OVCAR-4 ovarian
IGROV1 ovarian = tested on: IGROV1 ovarian
A549 NSCLC = tested on: A549 NSCLC
MOLT-4 leukemia = tested on: MOLT-4 leukemia
OVCAR-3 ovarian = tested on: OVCAR-3 ovarian
SW-620 colon = tested on: SW-620 colon
MDA-MB-231 breast = tested on: MDA-MB-231 breast
NCI/ADR-RES ovarian = tested on: NCI/ADR-RES ovarian
TK-10 renal = tested on: TK-10 renal
PC-3 prostate = tested on: PC-3 prostate
SR leukemia = tested on: SR leukemia
UACC-257 melanoma = tested on: UACC-257 melanoma
SK-MEL-28 melanoma = tested on: SK-MEL-28 melanoma
UACC-62 melanoma = tested on: UACC-62 melanoma
HL-60(TB) leukemia = tested on: HL-60(TB) leukemia
RPMI-8226 leukemia = tested on: RPMI-8226 leukemia
MALME-3M melanoma = tested on: MALME-3M melanoma
NCI-H226 lung = tested on: NCI-H226 lung
COLO 205 colon = tested on: COLO 205 colon
BT-549 breast = tested on: BT-549 breast
HCC-2998 colon = tested on: HCC-2998 colon

COc1ccc2c(c1)NC1=C(C(=O)OC1)C2c1cc(OC)c2c(c1)OCO2 (stereo not drawn)
GI50 (OVCAR-5 ovarian): 81.7 nM | TGI (OVCAR-5 ovarian): > 100 µM | GI50 (MCF7 breast): < 15.8 nM | TGI (MCF7 breast): > 100 µM | GI50 (HOP-92 NSCLC): 1360 nM | TGI (HOP-92 NSCLC): > 87.9 µM | GI50 (SK-MEL-2 melanoma): 29.9 nM | TGI (SK-MEL-2 melanoma): > 100 µM | GI50 (SNB-75 CNS): 42.6 nM | TGI (SNB-75 CNS): 43.3 µM | GI50 (SF-539 CNS): < 17.8 nM | TGI (SF-539 CNS): > 83.2 µM | TGI (EKVX NSCLC): > 100 µM | GI50 (M14 melanoma): 13.2 nM | TGI (M14 melanoma): 58.5 nM | GI50 (ACHN renal): 56.7 nM | TGI (ACHN renal): > 100 µM | GI50 (HT29 colon): 31.4 nM | TGI (HT29 colon): > 100 µM | GI50 (T-47D breast): > 100 µM | TGI (T-47D breast): > 100 µM | GI50 (A498 renal): < 14.6 nM | TGI (A498 renal): 43.7 nM | GI50 (SN12C renal): 28.8 nM | TGI (SN12C renal): > 100 µM | GI50 (SNB-19 CNS): 51.9 nM | TGI (SNB-19 CNS): > 100 µM | GI50 (MDA-MB-435): < 12.3 nM | TGI (MDA-MB-435): 32.2 nM | GI50 (HOP-62 NSCLC): 22.5 nM | TGI (HOP-62 NSCLC): 70.8 µM | GI50 (SK-OV-3 ovarian): 20.4 nM | GI50 (SF-268 CNS): < 21 nM | TGI (SF-268 CNS): > 100 µM | GI50 (HS 578T breast): < 18.9 nM | TGI (HS 578T breast): > 100 µM | TGI (K-562 leukemia): > 100 µM | GI50 (RXF 393 renal): < 16.7 nM | TGI (RXF 393 renal): > 72.4 µM | GI50 (LOX IMVI melanoma): < 18.9 nM | TGI (LOX IMVI melanoma): > 100 µM | TGI (UO-31 renal): > 100 µM | GI50 (SK-MEL-5 melanoma): 21 nM | TGI (SK-MEL-5 melanoma): 52.3 nM | GI50 (CAKI-1 renal): 50.2 nM | TGI (CAKI-1 renal): > 100 µM | GI50 (CCRF-CEM leukemia): < 18.7 nM | TGI (CCRF-CEM leukemia): > 100 µM | GI50 (U251 CNS): 23.6 nM | TGI (U251 CNS): > 100 µM | GI50 (DU-145 prostate): 21.8 nM | TGI (DU-145 prostate): 66 nM | GI50 (HCT-116 colon): < 18.2 nM | GI50 (SF-295 CNS): < 15.5 nM | TGI (SF-295 CNS): > 100 µM | GI50 (786-0 renal): 32 nM | TGI (786-0 renal): > 100 µM | TGI (NCI-H522 lung): 25.1 nM | GI50 (NCI-H460 lung): 27.4 nM | TGI (NCI-H460 lung): > 100 µM | GI50 (HCT-15 colon): 31.9 nM | TGI (HCT-15 colon): > 100 µM | GI50 (OVCAR-8 ovarian): < 18.5 nM | TGI (OVCAR-8 ovarian): > 100 µM | GI50 (NCI-H23 lung): 25.9 nM | TGI (NCI-H23 lung): > 100 µM | GI50 (OVCAR-4 ovarian): 25.7 nM | TGI (OVCAR-4 ovarian): > 100 µM | GI50 (IGROV1 ovarian): 33.7 nM | TGI (IGROV1 ovarian): > 100 µM | GI50 (A549 NSCLC): 22.9 nM | TGI (A549 NSCLC): > 100 µM | GI50 (MOLT-4 leukemia): 24.6 nM | TGI (MOLT-4 leukemia): > 100 µM | GI50 (OVCAR-3 ovarian): < 14.9 nM | TGI (OVCAR-3 ovarian): 24.1 nM | GI50 (SW-620 colon): < 19.2 nM | TGI (SW-620 colon): > 100 µM | GI50 (MDA-MB-231 breast): 34.2 nM | TGI (MDA-MB-231 breast): > 100 µM | GI50 (NCI/ADR-RES ovarian): < 16.5 nM | GI50 (TK-10 renal): 60.7 µM | TGI (TK-10 renal): > 100 µM | GI50 (PC-3 prostate): 28 nM | TGI (PC-3 prostate): > 100 µM | GI50 (SR leukemia): < 19.1 nM | TGI (SR leukemia): > 100 µM | TGI (UACC-257 melanoma): > 100 µM | TGI (SK-MEL-28 melanoma): > 100 µM | GI50 (UACC-62 melanoma): < 15.6 nM | TGI (UACC-62 melanoma): > 100 µM | GI50 (HL-60(TB) leukemia): 20.9 nM | TGI (HL-60(TB) leukemia): > 100 µM | GI50 (RPMI-8226 leukemia): < 19.8 nM | TGI (RPMI-8226 leukemia): > 100 µM | GI50 (MALME-3M melanoma): > 100 µM | TGI (MALME-3M melanoma): > 100 µM | GI50 (NCI-H226 lung): < 15.3 nM | GI50 (COLO 205 colon): < 13.5 nM | TGI (COLO 205 colon): 30.5 nM | GI50 (BT-549 breast): 46 nM | TGI (BT-549 breast): > 100 µM | GI50 (HCC-2998 colon): 29.7 nM
